Test results from PubChem BioAssay (NCI).
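Five concentrations, 48 hours, 96-well plates. At the GI50, growth is halved. TGI: concentration producing complete growth inhibition.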

Legend:
Test in all cases: NCI tumour cell line growth inhibition, 48 h
[1] = tested on: 786-0 renal
[2] = tested on: A498 renal
[3] = tested on: A549 NSCLC
[4] = tested on: ACHN renal
[5] = tested on: BT-549 breast
[6] = tested on: CAKI-1 renal
[7] = tested on: COLO 205 colon
[8] = tested on: DU-145 prostate
[9] = tested on: EKVX NSCLC
[10] = tested on: HCC-2998 colon
[11] = tested on: HCT-116 colon
[12] = tested on: HCT-15 colon
[13] = tested on: HL-60(TB) leukemia
[14] = tested on: HOP-62 NSCLC
[15] = tested on: HOP-92 NSCLC
[16] = tested on: HS 578T breast
[17] = tested on: HT29 colon
[18] = tested on: IGROV1 ovarian
[19] = tested on: K-562 leukemia
[20] = tested on: KM12 colon
[21] = tested on: LOX IMVI melanoma
[22] = tested on: M14 melanoma
[23] = tested on: MALME-3M melanoma
[24] = tested on: MCF7 breast
[25] = tested on: MDA-MB-231 breast
[26] = tested on: MDA-MB-435
[27] = tested on: MOLT-4 leukemia
[28] = tested on: NCI-H226 lung
[29] = tested on: NCI-H23 lung
[30] = tested on: NCI-H460 lung
[31] = tested on: NCI-H522 lung
[32] = tested on: NCI/ADR-RES ovarian
[33] = tested on: OVCAR-3 ovarian
[34] = tested on: OVCAR-5 ovarian
[35] = tested on: OVCAR-8 ovarian
[36] = tested on: PC-3 prostate
[37] = tested on: RPMI-8226 leukemia
[38] = tested on: RXF 393 renal
[39] = tested on: SF-268 CNS
[40] = tested on: SF-295 CNS
[41] = tested on: SF-539 CNS
[42] = tested on: SK-MEL-2 melanoma
[43] = tested on: SK-MEL-5 melanoma
[44] = tested on: SK-OV-3 ovarian
[45] = tested on: SN12C renal
[46] = tested on: SNB-19 CNS
[47] = tested on: SW-620 colon
[48] = tested on: T-47D breast
[49] = tested on: TK-10 renal
[50] = tested on: U251 CNS
[51] = tested on: UACC-257 melanoma
[52] = tested on: UACC-62 melanoma
[53] = tested on: UO-31 renal

## COc1ccc(-n2c3c(c4c(CN(C)C)c(O)c(C)cc42)CCc2ccccc2C3=O)cc1
[1]
  GI50: 29.7 µM
  TGI: > 100 µM
[2]
  GI50: 60 µM
  TGI: > 100 µM
[3]
  GI50: 55.6 µM
  TGI: > 100 µM
[4]
  GI50: 47 µM
  TGI: > 100 µM
[5]
  GI50: 14.4 µM
  TGI: > 100 µM
[6]
  GI50: 24.5 µM
  TGI: > 100 µM
[7]
  GI50: > 100 µM
  TGI: > 100 µM
[8]
  GI50: 21.4 µM
  TGI: > 100 µM
[9]
  GI50: 44.5 µM
  TGI: > 100 µM
[10]
  GI50: 23.4 µM
  TGI: 67.8 µM
[11]
  GI50: 34.4 µM
  TGI: > 100 µM
[12]
  GI50: 28.7 µM
  TGI: > 100 µM
[13]
  GI50: 12.3 µM
  TGI: 43.6 µM
[14]
  GI50: 40.8 µM
  TGI: > 100 µM
[15]
  GI50: 41.9 µM
  TGI: > 100 µM
[16]
  GI50: 48.2 µM
  TGI: > 100 µM
[17]
  GI50: > 100 µM
  TGI: > 100 µM
[18]
  GI50: 21 µM
  TGI: 85.2 µM
[19]
  GI50: 18.7 µM
  TGI: 44.4 µM
[20]
  GI50: 21.1 µM
  TGI: 63.9 µM
[21]
  GI50: 17.1 µM
  TGI: 45.2 µM
[22]
  GI50: 26.9 µM
  TGI: 97 µM
[23]
  GI50: 25.4 µM
  TGI: > 100 µM
[24]
  GI50: > 100 µM
  TGI: > 100 µM
[25]
  GI50: 25 µM
  TGI: 90.1 µM
[26]
  GI50: 14 µM
  TGI: 40.4 µM
[27]
  GI50: 22.9 µM
  TGI: 65.7 µM
[28]
  GI50: 28.3 µM
  TGI: > 100 µM
[29]
  GI50: 14 µM
  TGI: 69 µM
[30]
  GI50: 69.1 µM
  TGI: > 100 µM
[31]
  GI50: 13.4 µM
  TGI: 50.7 µM
[32]
  GI50: 17.9 µM
  TGI: 45.2 µM
[33]
  GI50: 34.2 µM
  TGI: 97.2 µM
[34]
  GI50: 35.2 µM
  TGI: > 100 µM
[35]
  GI50: 31.6 µM
  TGI: > 100 µM
[36]
  GI50: 11.7 µM
  TGI: 50.3 µM
[37]
  GI50: 15.5 µM
  TGI: 47 µM
[38]
  GI50: 16.1 µM
  TGI: 75.6 µM
[39]
  GI50: 61.9 µM
  TGI: > 100 µM
[40]
  GI50: 35.6 µM
  TGI: > 100 µM
[41]
  GI50: 26.9 µM
  TGI: > 100 µM
[42]
  GI50: 48 µM
  TGI: > 100 µM
[43]
  GI50: 21.5 µM
  TGI: 68.8 µM
[44]
  GI50: > 100 µM
  TGI: > 100 µM
[45]
  GI50: 29.6 µM
  TGI: > 100 µM
[46]
  GI50: > 100 µM
  TGI: > 100 µM
[47]
  GI50: 32.5 µM
  TGI: > 100 µM
[48]
  GI50: > 100 µM
  TGI: > 100 µM
[49]
  GI50: 47.2 µM
  TGI: > 100 µM
[50]
  GI50: 28.3 µM
  TGI: > 100 µM
[51]
  GI50: 78.1 µM
  TGI: > 100 µM
[52]
  GI50: 30.6 µM
  TGI: > 100 µM
[53]
  GI50: 45.9 µM
  TGI: > 100 µM
